Values belong to the compound of their own block, whether it stands above or below them.
Tested on: 435261-313-R-J1-PDC complex spheroid viability
Assay: Anticancer human tumor 435261-313-R-J1-PDC patient-derived colon adenocarcinoma cell line growth inhibition [GQUAD]
Settings: for IC50: curve of first compound; for viability, T/C: stronger effect = lower value
Procedure, shortened: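 Viability of tumor cells grown as complex spheroids with endothelial and stromal cells, exposed to drug combinations. Top concentration at or near clinical Cmax (else 10 microM), diluted in half-log increments.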

[1] = second compound 0.0316 µM, first compound 0.0316 µM
[2] = second compound 0.0316 µM, first compound 0.1 µM
[3] = second compound 0.0316 µM, first compound 0.316 µM
[4] = second compound 0.0316 µM, first compound 1 µM
[5] = second compound 0.0316 µM, first compound 3.16 µM
[6] = second compound 0.0316 µM, first compound 10 µM
[7] = second compound 0.1 µM, first compound 0.0316 µM
[8] = second compound 0.1 µM, first compound 0.1 µM
[9] = second compound 0.1 µM, first compound 0.316 µM
[10] = second compound 0.1 µM, first compound 1 µM
[11] = second compound 0.1 µM, first compound 3.16 µM
[12] = second compound 0.1 µM, first compound 10 µM
[13] = second compound 0.316 µM, first compound 0.0316 µM
[14] = second compound 0.316 µM, first compound 0.1 µM
[15] = second compound 0.316 µM, first compound 0.316 µM
[16] = second compound 0.316 µM, first compound 1 µM
[17] = second compound 0.316 µM, first compound 3.16 µM
[18] = second compound 0.316 µM, first compound 10 µM
[19] = second compound 1 µM, first compound 0.0316 µM
[20] = second compound 1 µM, first compound 0.1 µM
[21] = second compound 1 µM, first compound 0.316 µM
[22] = second compound 1 µM, first compound 1 µM
[23] = second compound 1 µM, first compound 3.16 µM
[24] = second compound 1 µM, first compound 10 µM
[25] = second compound 3.16 µM, first compound 0.0316 µM
[26] = second compound 3.16 µM, first compound 0.1 µM
[27] = second compound 3.16 µM, first compound 0.316 µM
[28] = second compound 3.16 µM, first compound 1 µM
[29] = second compound 3.16 µM, first compound 3.16 µM
[30] = second compound 3.16 µM, first compound 10 µM
[31] = second compound 10 µM, first compound 0.0316 µM
[32] = second compound 10 µM, first compound 0.1 µM
[33] = second compound 10 µM, first compound 0.316 µM
[34] = second compound 10 µM, first compound 1 µM
[35] = second compound 10 µM, first compound 3.16 µM
[36] = second compound 10 µM, first compound 10 µM
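Note: spheroids exposed to the agents for seven days before readout.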
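Throughout, for viability, T/C: percent of vehicle control viability with DMSO wells as 100%.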

- IC50 (second compound 0.0316 µM): 295 nM
- IC50 (second compound 0.1 µM): 425 nM
- IC50 (second compound 0.316 µM): 318 nM
- IC50 (second compound 1 µM): < 31.6 nM
- IC50 (second compound 3.16 µM): < 31.6 nM
- IC50 (second compound 10 µM): < 31.6 nM
SMILES: CC1COCCN1c1cc(-c2ccnn2C)c2ccnc(-c3ccn[nH]3)c2n1 (stereo unspecified) + Cc1cnc(CNC(=O)c2c(=O)c3ccc(N4CCCN(C)CC4)nc3n3c2sc2ccccc23)cn1
- viability, T/C [1]: 72.1%
- viability, T/C [2]: 54.9%
- viability, T/C [3]: 54.7%
- viability, T/C [4]: 35.4%
- viability, T/C [5]: 36.2%
- viability, T/C [6]: 23.9%
- viability, T/C [7]: 61.8%
- viability, T/C [8]: 59.4%
- viability, T/C [9]: 52.4%
- viability, T/C [10]: 42.2%
- viability, T/C [11]: 30.6%
- viability, T/C [12]: 21.3%
- viability, T/C [13]: 51.8%
- viability, T/C [14]: 57.6%
- viability, T/C [15]: 50.5%
- viability, T/C [16]: 37.9%
- viability, T/C [17]: 26.5%
- viability, T/C [18]: 15.1%
- viability, T/C [19]: 36.5%
- viability, T/C [20]: 41.9%
- viability, T/C [21]: 34.6%
- viability, T/C [22]: 26.3%
- viability, T/C [23]: 13.4%
- viability, T/C [24]: 9.95%
- viability, T/C [25]: 22.4%
- viability, T/C [26]: 21.2%
- viability, T/C [27]: 11.5%
- viability, T/C [28]: 4.04%
- viability, T/C [29]: 3.7%
- viability, T/C [30]: 2.53%
- viability, T/C [31]: 0.11%
- viability, T/C [32]: 0.14%
- viability, T/C [33]: 0.18%
- viability, T/C [34]: 0.15%
- viability, T/C [35]: 0.16%
- viability, T/C [36]: 0.15%

SMILES: C=CC(=O)N1CCN(c2nc(=O)n(-c3c(C)ccnc3C(C)C)c3nc(-c4c(O)cccc4F)c(F)cc23)C(C)C1 (stereo unspecified) + CN(C)c1ccc(Nc2c3ccc(NC(=O)CCN4CCCC4)cc3nc3cc(NC(=O)CCN4CCCC4)ccc23)cc1
- IC50 (second compound 0.0316 µM): > 10000 nM
- IC50 (second compound 0.1 µM): > 10000 nM
- IC50 (second compound 0.316 µM): > 10000 nM
- IC50 (second compound 1 µM): > 10000 nM
- IC50 (second compound 3.16 µM): > 10000 nM
- IC50 (second compound 10 µM): < 31.6 nM
- viability, T/C [1]: 98.5%
- viability, T/C [2]: 146%
- viability, T/C [3]: 119%
- viability, T/C [4]: 97.6%
- viability, T/C [5]: 100%
- viability, T/C [6]: 105%
- viability, T/C [7]: 111%
- viability, T/C [8]: 109%
- viability, T/C [9]: 111%
- viability, T/C [10]: 138%
- viability, T/C [11]: 115%
- viability, T/C [12]: 173%
- viability, T/C [13]: 159%
- viability, T/C [14]: 106%
- viability, T/C [15]: 123%
- viability, T/C [16]: 120%
- viability, T/C [17]: 111%
- viability, T/C [18]: 103%
- viability, T/C [19]: 122%
- viability, T/C [20]: 101%
- viability, T/C [21]: 149%
- viability, T/C [22]: 99.8%
- viability, T/C [23]: 145%
- viability, T/C [24]: 109%
- viability, T/C [25]: 69.4%
- viability, T/C [26]: 98.3%
- viability, T/C [27]: 114%
- viability, T/C [28]: 113%
- viability, T/C [29]: 102%
- viability, T/C [30]: 87.1%
- viability, T/C [31]: 30.8%
- viability, T/C [32]: 45.6%
- viability, T/C [33]: 54%
- viability, T/C [34]: 71.5%
- viability, T/C [35]: 70.9%
- viability, T/C [36]: 30.2%

SMILES: CC(C)(O)C1CCC(Nc2ccc3ncc(-c4cccc(C(F)(F)F)c4)n3n2)CC1 (stereo unspecified) + Cc1[nH]c2ccc(F)cc2c1-c1nc2c3cccnc3c3ncccc3c2[nH]1
- IC50 (second compound 0.0316 µM): 605 nM
- IC50 (second compound 0.1 µM): 683 nM
- IC50 (second compound 0.316 µM): 520 nM
- IC50 (second compound 1 µM): 229 nM
- IC50 (second compound 3.16 µM): < 31.6 nM
- IC50 (second compound 10 µM): < 31.6 nM
- viability, T/C [1]: 85.1%
- viability, T/C [2]: 93.4%
- viability, T/C [3]: 79%
- viability, T/C [4]: 27.4%
- viability, T/C [5]: 6.6%
- viability, T/C [6]: 11.2%
- viability, T/C [7]: 80%
- viability, T/C [8]: 79.6%
- viability, T/C [9]: 98.3%
- viability, T/C [10]: 32.2%
- viability, T/C [11]: 8.63%
- viability, T/C [12]: 8.09%
- viability, T/C [13]: 92.8%
- viability, T/C [14]: 90.7%
- viability, T/C [15]: 64.5%
- viability, T/C [16]: 31.5%
- viability, T/C [17]: 3.9%
- viability, T/C [18]: 11.5%
- viability, T/C [19]: 63.4%
- viability, T/C [20]: 61%
- viability, T/C [21]: 44.1%
- viability, T/C [22]: 27.3%
- viability, T/C [23]: 6.32%
- viability, T/C [24]: 5.71%
- viability, T/C [25]: 23.6%
- viability, T/C [26]: 19.2%
- viability, T/C [27]: 30.8%
- viability, T/C [28]: 22.3%
- viability, T/C [29]: 3.91%
- viability, T/C [30]: 3.07%
- viability, T/C [31]: 18.3%
- viability, T/C [32]: 20.8%
- viability, T/C [33]: 18.5%
- viability, T/C [34]: 20.4%
- viability, T/C [35]: 1.4%
- viability, T/C [36]: 3.39%

Source: PubChem BioAssay AID2060494 (Molecular Pharmacology Branch, DTP, NCI, 2025)
